What was measured:
Assay in all cases: biochemical
Set-up in all cases: AlphaScreen histone demethylase activity assay
JMJD1A (KDM3A) = target: T1, JMJD1A (KDM3A) (Homo sapiens, UniProt Q9Y4C1)
T1 sequence (Q9Y4C1 1-1321): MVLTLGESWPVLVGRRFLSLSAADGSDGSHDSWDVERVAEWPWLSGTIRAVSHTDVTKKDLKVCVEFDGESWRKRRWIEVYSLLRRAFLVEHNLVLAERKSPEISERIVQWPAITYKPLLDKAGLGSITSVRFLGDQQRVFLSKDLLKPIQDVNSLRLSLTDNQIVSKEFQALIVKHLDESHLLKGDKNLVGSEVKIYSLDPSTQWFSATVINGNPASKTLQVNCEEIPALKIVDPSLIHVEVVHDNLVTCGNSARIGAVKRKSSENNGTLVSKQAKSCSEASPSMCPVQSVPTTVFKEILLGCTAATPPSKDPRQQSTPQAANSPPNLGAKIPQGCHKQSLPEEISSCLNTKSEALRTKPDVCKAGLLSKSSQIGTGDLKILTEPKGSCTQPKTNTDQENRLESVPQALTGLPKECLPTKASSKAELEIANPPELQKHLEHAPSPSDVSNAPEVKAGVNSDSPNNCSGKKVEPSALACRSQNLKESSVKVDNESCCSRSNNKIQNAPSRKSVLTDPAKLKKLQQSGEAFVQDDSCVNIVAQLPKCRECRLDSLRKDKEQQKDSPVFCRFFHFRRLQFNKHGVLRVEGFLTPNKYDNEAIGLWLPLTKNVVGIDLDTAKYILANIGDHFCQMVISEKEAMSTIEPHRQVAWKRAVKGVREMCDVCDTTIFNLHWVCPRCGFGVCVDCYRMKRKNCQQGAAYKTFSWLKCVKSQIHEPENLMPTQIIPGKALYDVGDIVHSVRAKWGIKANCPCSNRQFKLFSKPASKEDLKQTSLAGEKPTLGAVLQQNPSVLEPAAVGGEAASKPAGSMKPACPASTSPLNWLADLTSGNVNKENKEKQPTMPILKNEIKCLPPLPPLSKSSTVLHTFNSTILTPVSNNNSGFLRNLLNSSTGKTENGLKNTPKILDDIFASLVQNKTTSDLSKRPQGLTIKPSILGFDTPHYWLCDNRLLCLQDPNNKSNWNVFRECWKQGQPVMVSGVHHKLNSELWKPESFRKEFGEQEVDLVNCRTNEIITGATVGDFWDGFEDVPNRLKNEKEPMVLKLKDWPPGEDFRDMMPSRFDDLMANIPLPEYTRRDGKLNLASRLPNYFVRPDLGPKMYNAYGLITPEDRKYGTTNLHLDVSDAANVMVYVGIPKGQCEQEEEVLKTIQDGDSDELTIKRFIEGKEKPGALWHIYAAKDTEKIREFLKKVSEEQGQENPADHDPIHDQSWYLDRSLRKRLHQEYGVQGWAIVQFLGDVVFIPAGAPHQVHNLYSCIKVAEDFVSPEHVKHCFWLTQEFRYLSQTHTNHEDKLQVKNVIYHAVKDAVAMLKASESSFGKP
Text: (§1) A base‐mediated 5‐endo‐trig cyclization of a C‐2‐substituted aromatic imine afforded the racemic indoline core with two adjacent stereocenters. Subsequent acylation of the indoline ring system conferred stability towards oxidation and provided a handle for modulating polarity. Finally, metal‐catalysed cross‐coupling of the aryl bromide provided access to a variety of linkers between the indoline core and pyrrolidine capping group. In total, 45 racemic compounds were synthesized, and IC50 values for inhibition of KDM2A were determined using two orthogonal enzyme activity assays: AlphaScreen25 and RapidFire MS26 (see Section S3.1 in the Supporting Information for complete inhibition data). Key structure–activity relationships are summarized below (Scheme 1 B, compounds 2–12). […] In immunofluorescence assays using HeLa cells ectopically expressing catalytically active KDM2A, a dose‐dependent increase in H3K36me2 staining was observed upon incubation with (S,S)‐6, reflecting augmented cellular H3K36me2 levels (Figure 2 A and Section S3.3). […] To profile its selectivity, (S,S)‐6 was tested for inhibitory activity against a panel of KDMs, methyllysine binding motifs, and epigenetic enzymes.

JARID1C (KDM5C) = JARID1C (KDM5C) (Homo sapiens, UniProt P41229)
Text: as §1

JARID1A (KDM5A) = JARID1A (KDM5A) (Homo sapiens, UniProt P29375)
Text: as §1

JMJD2A (KDM4A) = target: T2, JMJD2A (KDM4A) (Homo sapiens, UniProt O75164); details: read-out: KDM4A % Inhib. (10 uM)
T2 sequence (O75164 1-1064): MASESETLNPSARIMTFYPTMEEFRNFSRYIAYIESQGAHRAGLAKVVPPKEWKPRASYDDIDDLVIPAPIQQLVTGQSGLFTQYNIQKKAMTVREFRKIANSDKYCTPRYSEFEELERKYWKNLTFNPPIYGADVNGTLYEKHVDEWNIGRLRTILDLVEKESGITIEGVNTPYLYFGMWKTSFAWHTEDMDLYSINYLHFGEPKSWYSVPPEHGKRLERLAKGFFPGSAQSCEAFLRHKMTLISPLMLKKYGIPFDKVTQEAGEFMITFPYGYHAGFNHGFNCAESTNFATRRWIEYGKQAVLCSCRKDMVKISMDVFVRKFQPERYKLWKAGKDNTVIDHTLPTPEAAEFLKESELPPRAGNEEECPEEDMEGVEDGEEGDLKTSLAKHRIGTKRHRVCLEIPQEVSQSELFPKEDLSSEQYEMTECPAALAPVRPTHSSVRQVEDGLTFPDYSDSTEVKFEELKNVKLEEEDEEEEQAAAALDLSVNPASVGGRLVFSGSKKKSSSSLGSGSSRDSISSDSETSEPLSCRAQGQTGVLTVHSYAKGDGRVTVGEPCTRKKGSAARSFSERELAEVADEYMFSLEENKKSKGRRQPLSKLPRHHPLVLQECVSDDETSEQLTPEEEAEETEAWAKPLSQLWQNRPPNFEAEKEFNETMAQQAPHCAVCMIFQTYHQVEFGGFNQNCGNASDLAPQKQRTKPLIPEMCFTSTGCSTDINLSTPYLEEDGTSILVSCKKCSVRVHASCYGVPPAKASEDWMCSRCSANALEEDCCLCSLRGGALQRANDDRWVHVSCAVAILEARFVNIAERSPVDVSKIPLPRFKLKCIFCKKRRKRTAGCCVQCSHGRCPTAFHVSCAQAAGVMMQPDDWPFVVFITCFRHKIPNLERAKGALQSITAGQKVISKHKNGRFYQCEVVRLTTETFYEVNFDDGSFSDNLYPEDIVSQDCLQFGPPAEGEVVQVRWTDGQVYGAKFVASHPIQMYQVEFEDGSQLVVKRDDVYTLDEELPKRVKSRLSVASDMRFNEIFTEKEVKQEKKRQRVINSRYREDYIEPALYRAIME

JMJD2C (KDM4C) = target: T3, JMJD2C (KDM4C) (Homo sapiens, UniProt Q9H3R0); details: read-out: KDM4C % Inhib. (10 uM)
T3 sequence (Q9H3R0 1-1056): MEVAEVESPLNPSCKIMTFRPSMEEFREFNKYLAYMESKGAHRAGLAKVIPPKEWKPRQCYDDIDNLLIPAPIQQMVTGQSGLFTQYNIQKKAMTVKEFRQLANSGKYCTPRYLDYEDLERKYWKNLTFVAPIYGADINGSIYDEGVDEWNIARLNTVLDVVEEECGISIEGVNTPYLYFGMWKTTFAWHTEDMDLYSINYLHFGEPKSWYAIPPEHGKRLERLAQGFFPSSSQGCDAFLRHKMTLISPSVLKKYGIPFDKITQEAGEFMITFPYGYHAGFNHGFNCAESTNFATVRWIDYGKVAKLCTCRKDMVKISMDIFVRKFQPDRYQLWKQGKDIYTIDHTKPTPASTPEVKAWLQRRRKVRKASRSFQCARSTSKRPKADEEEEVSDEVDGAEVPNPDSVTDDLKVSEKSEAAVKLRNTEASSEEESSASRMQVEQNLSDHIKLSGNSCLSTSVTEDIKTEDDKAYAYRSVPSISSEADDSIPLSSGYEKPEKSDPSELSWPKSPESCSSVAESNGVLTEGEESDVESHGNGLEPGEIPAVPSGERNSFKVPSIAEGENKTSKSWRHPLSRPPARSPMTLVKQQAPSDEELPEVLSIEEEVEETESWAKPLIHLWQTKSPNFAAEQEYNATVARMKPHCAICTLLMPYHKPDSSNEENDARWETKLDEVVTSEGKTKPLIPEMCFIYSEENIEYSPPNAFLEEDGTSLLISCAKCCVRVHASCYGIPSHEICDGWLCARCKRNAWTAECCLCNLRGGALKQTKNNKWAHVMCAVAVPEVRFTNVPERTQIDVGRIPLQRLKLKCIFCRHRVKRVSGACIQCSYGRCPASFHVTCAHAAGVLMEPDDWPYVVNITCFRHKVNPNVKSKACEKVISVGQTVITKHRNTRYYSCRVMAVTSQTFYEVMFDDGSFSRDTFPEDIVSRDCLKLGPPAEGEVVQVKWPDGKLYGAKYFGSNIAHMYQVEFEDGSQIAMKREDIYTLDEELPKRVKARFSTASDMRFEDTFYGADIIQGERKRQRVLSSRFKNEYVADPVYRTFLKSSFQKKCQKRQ
Text: as §1

JMJD2D (KDM4D) = target: T4, JMJD2D (KDM4D) (Homo sapiens, UniProt Q6B0I6)
T4 sequence (Q6B0I6 1-523): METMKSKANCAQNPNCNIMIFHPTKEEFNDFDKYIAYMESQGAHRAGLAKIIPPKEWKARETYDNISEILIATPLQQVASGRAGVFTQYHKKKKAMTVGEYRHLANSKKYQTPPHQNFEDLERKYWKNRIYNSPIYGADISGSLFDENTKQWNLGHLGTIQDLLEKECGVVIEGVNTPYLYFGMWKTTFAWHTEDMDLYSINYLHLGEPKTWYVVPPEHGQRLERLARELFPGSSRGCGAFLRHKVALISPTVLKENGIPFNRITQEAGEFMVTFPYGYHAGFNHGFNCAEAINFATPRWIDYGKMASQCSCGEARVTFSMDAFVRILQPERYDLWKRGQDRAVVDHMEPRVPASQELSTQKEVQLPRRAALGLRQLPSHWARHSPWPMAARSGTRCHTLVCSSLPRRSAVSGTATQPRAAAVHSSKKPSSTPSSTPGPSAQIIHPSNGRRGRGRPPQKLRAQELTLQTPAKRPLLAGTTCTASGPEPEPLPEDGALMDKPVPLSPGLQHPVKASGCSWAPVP
Text: as §1

JARID1A (KDM5A), sequence (P29375 whole entry): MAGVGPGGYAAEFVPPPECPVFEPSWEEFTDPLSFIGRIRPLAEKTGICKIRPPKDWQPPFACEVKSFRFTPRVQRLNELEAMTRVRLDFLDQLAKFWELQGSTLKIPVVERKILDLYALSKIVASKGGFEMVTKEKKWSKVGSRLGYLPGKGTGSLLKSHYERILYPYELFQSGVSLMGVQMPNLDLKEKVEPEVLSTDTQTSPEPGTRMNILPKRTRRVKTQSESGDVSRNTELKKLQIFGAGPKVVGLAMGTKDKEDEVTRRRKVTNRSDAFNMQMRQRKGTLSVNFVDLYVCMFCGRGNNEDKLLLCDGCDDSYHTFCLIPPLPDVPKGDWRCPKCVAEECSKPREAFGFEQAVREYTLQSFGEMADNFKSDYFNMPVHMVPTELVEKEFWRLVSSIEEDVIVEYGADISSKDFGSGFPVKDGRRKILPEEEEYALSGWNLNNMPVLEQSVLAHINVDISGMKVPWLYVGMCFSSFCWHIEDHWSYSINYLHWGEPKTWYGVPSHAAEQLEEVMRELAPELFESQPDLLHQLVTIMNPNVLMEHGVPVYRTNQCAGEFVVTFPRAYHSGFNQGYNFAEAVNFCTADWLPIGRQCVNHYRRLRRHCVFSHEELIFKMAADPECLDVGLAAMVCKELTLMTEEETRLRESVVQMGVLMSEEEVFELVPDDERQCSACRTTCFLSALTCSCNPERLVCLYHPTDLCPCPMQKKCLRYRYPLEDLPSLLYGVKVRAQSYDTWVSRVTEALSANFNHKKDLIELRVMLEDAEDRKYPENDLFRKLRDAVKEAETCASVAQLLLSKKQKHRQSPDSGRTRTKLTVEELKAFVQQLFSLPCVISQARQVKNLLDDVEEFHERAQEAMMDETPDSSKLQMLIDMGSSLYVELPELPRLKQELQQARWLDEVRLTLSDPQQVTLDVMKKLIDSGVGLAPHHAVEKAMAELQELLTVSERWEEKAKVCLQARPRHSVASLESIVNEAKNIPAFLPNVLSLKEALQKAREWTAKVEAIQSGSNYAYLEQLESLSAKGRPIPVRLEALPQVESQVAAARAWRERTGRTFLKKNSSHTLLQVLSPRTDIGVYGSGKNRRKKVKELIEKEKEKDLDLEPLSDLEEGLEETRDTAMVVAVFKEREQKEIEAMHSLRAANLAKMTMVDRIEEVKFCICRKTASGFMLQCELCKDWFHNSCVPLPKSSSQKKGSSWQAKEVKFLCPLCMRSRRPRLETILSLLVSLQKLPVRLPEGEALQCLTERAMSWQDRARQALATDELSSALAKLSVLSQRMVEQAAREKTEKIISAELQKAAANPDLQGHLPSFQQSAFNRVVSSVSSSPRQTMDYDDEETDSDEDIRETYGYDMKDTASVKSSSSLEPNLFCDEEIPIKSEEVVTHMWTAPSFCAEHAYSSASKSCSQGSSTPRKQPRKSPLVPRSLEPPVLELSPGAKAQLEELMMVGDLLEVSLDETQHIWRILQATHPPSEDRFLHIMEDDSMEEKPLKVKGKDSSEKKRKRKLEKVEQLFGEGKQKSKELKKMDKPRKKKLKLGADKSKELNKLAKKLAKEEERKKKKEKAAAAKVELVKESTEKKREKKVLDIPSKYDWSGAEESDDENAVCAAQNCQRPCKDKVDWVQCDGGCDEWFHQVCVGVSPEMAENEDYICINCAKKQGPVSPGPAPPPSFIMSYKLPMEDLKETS
JARID1C (KDM5C), sequence (P41229 whole entry): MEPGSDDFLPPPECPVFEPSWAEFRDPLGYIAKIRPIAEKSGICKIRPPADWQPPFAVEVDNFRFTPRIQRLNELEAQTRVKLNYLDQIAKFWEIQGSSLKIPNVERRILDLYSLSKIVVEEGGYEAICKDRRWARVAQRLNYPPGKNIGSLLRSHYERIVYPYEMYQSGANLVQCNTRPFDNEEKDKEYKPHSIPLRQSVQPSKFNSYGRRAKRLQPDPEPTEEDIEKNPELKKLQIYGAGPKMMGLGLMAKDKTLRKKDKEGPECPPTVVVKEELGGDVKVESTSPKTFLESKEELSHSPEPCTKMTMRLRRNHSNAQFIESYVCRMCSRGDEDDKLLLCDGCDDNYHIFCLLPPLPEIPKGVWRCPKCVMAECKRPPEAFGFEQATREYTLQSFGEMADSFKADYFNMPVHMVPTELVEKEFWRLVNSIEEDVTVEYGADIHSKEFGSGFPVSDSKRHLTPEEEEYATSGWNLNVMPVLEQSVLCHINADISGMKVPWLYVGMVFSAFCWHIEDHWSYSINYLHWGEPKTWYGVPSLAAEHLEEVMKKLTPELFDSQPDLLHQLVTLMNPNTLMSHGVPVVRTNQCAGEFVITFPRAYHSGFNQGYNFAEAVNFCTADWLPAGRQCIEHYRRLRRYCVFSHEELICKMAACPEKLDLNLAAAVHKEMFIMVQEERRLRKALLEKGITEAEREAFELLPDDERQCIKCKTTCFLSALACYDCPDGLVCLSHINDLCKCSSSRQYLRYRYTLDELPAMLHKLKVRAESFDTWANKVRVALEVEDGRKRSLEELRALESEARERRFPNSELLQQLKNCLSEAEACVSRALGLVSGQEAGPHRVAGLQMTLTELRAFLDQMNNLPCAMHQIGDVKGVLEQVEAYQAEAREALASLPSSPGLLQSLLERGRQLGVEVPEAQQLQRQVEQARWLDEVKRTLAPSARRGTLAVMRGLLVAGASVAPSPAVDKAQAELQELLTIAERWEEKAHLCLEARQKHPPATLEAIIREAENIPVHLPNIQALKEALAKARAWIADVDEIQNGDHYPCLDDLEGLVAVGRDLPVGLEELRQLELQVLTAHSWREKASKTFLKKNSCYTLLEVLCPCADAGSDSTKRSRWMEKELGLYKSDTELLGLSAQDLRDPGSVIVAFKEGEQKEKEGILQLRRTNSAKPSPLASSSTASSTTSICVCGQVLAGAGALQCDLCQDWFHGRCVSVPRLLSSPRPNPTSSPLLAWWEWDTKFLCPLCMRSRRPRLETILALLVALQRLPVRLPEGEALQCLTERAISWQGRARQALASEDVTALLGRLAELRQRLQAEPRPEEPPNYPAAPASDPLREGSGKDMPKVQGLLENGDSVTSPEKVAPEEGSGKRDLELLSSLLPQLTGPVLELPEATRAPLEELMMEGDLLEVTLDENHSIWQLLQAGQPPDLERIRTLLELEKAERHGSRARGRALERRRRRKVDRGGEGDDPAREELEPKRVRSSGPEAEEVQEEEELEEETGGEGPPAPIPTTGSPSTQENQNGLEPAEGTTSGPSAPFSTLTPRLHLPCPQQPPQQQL

inhibition at 100 µM (JMJD1A (KDM3A))	inhibition at 100 µM (JARID1C (KDM5C))	inhibition at 50 µM (JARID1A (KDM5A))	inhibition at 10 µM (JMJD2A (KDM4A))	inhibition at 10 µM (JMJD2C (KDM4C))	inhibition at 10 µM (JMJD2D (KDM4D))	SMILES
21.1%	46.7%	39.5%	–	–	–	CC(=O)N1c2ccccc2C(C#N)(c2ccccc2)C1c1cncc(-c2cn(CCCCCN3CCCC3)nn2)c1 (stereo not shown) [compound 119, 119]
15.1 ± 9.5%	32.3%	39.1%	–	–	–	CC(=O)N1c2ccccc2[C@](C#N)(c2ccccc2)[C@H]1c1cncc(/C=C/CCCCCN2CCCC2)c1 (racemic) [compound 5, 5]
–	–	46.6%	24.4%	32.3%	14.4%	CC(=O)N1c2ccccc2C(C#N)(c2ccccc2)C1c1ccc(CCCCCCCN2CCCC2)o1 (stereo not shown) [compound 138, 138]

From PMC5725665, “Discovery of a Highly Selective Cell‐Active Inhibitor of the Histone Lysine Demethylases KDM2/7” (Angewandte Chemie (International Ed. in English), 2017)
